Measured values reported in publication PMC5458078, “Global mapping of CARM1 substrates defines enzyme specificity and substrate recognition” (Nature Communications, 2017).
Read-outs that look alike come from different tables or passages of the source.

What was measured:
histone substrate = details: cited from earlier work
Source text: page 18: We agree with the reviewer’s assertion that proteomic experiments generally suffer from the abundance bias. However, we, and others, argue that analyses of post-translational modifications are less affected by this issue, as the immunoprecipitation and other methods of PTM enrichment rely on the abundance of the PTM itself, not the protein that bears it, i.e., a strongly modified low abundance protein is as likely to be pulled down as a lowly modified high abundance protein.

MCF7 CARM1 KO cells = assay: Quantitative MS of ADMA-containing peptides in MCF7 CARM1 KO cells expressing CARM1 28-608 or CARM1 140-608, and in CARM1 KO; type: cell-based, human
MCF7 cells = assay: Quantitative nanoLC-MS/MS (TMT) of ADMA-containing peptides, CARM1 KO vs parental; type: cell-based, human; set-up: Fold change KO/WT: scale not given here
[1] = log2 scale ratio, mean of n = 3
[2] = ADMA-containing peptide, MCF7, CARM1 knockout (KO1-3) vs wild type (WT1-3), TMT 6-plex experiment #1
[3] = CARM1 140-608 versus WT, mean of three replicates (log2)
[4] = KO versus WT, mean of three replicates (log2)
[5] = ADMA-containing peptide, CARM1 knockout (KO) vs wild type (WT) MCF7 cells, 6-plex TMT experiment #1, three biological replicates each, sheet "MCF7"
[6] = CARM1 140-608 vs WT, mean of 3 replicates (log2 scale)
[7] = KO vs WT, mean of 3 replicates (log2 scale)
[8] = MCF7, CARM1 KO (KO1-KO3) vs wild type (WT1-WT3)
[9] = CARM1 140-608 vs WT, mean of 3 replicates, log2
[10] = KO vs WT, mean of 3 replicates, log2
[11] = MCF7, CARM1 KO vs WT, three biological replicates each
[12] = mean, CARM1 140-608 versus WT (log2 scale)
[13] = mean, CARM1 KO versus WT (log2 scale)
[14] = MCF7 CARM1 knockout vs wild type, 3 biological replicates each, values are on log2 scale
[15] = ratio on log2 scale, mean of 3 replicates

PRMT1: protein arginine methyltransferase 1
Km (histone substrate; PRMT1, histone substrate, ref Pak et al., Biochem 2011): 4.2 µM

ELSHPPLYrLPLLENAETPQ
CARM1 140-608/WT (MCF7 CARM1 KO cells; [1]): -1.659 | KO/WT (MCF7 CARM1 KO cells; [1]): -3.498 | Fold change KO/WT (MCF7 cells; [2]): -3.498

NELIArYIK
CARM1 140-608/WT (MCF7 CARM1 KO cells; [1]): -0.332 | KO/WT (MCF7 CARM1 KO cells; [1]): -0.02143 | Fold change KO/WT (MCF7 cells; [2]): 0.1085

AMLPGSPLFTrAPPPK
CARM1 140-608/WT (MCF7 CARM1 KO cells; [3]): -2.658 | KO/WT (MCF7 CARM1 KO cells; [4]): -3.62 | Fold change KO/WT (MCF7 cells; [5]): -3.62

MGTPVPRPPQDMGQIGVrTPLGPrVAAPVGPVGPTPTVLPMGAPVPrPR
CARM1 140-608/WT (MCF7 CARM1 KO cells; [6]): -2.519 | KO/WT (MCF7 CARM1 KO cells; [7]): -3.3286 | Fold change KO/WT (MCF7 cells; [8]): -2.803

TPTATTSGIrATLTPTVLAPrLPQPPQNPTNIQNFQLPPGMVLVR
CARM1 140-608/WT (MCF7 CARM1 KO cells; [1]): 0.4964 | KO/WT (MCF7 CARM1 KO cells; [1]): -3.04 | Fold change KO/WT (MCF7 cells; [2]): -3.04

FPAGArYAGAGGLER
CARM1 140-608/WT (MCF7 CARM1 KO cells; [9]): -0.8137 | KO/WT (MCF7 CARM1 KO cells; [10]): -1.235 | Fold change KO/WT (MCF7 cells; [11]): -0.6954

LGHDAYrLGQDPYrLGHDPYR
CARM1 140-608/WT (MCF7 CARM1 KO cells): -1.958 | KO/WT (MCF7 CARM1 KO cells): -1.784 | Fold change KO/WT (MCF7 cells; [2]): -1.784

SLCASTLTVSSGSSrGSLASSrGSLASSR
CARM1 140-608/WT (MCF7 CARM1 KO cells; CARM1 140-608 versus WT, difference of mean log2 values): -0.3572 | KO/WT (MCF7 CARM1 KO cells; CARM1 KO versus WT, difference of mean log2 values): -0.04724 | Fold change KO/WT (MCF7 cells; CARM1 KO vs wild type MCF7 cells, 3 biological replicates each): -0.6221

LHPQLHrAPIR
CARM1 140-608/WT (MCF7 CARM1 KO cells; [3]): -0.07051 | KO/WT (MCF7 CARM1 KO cells; [4]): 1.076 | Fold change KO/WT (MCF7 cells; [5]): 1.076

STrGGHMNSGGHAK
CARM1 140-608/WT (MCF7 CARM1 KO cells; [9]): 0.5079 | KO/WT (MCF7 CARM1 KO cells; [10]): 0.07617 | Fold change KO/WT (MCF7 cells; [11]): 0.07617

GVVDSDDLPLNVSr
CARM1 140-608/WT (MCF7 CARM1 KO cells; [12]): -0.04605 | KO/WT (MCF7 CARM1 KO cells; [13]): -1.284 | Fold change KO/WT (MCF7 cells; [14]): -0.9856

GRPSSPrTPLYLQPDAYGSLDR
CARM1 140-608/WT (MCF7 CARM1 KO cells; [3]): -1.266 | KO/WT (MCF7 CARM1 KO cells; [4]): -1.386 | Fold change KO/WT (MCF7 cells; [8]): -1.386

LGRPIGALArGAIGGR
CARM1 140-608/WT (MCF7 CARM1 KO cells; [15]): 0.09518 | KO/WT (MCF7 CARM1 KO cells; [15]): 1.211 | Fold change KO/WT (MCF7 cells; [11]): 0.325

FIQPrPTLNQPPPPLIrPANSMPPR
CARM1 140-608/WT (MCF7 CARM1 KO cells; [6]): 0.9302 | KO/WT (MCF7 CARM1 KO cells; [7]): -1.231 | Fold change KO/WT (MCF7 cells; [8]): -1.957

IAQPVrSFLQPPKPLSSLSTLR
CARM1 140-608/WT (MCF7 CARM1 KO cells; [6]): -1.679 | KO/WT (MCF7 CARM1 KO cells; [7]): -2.977 | Fold change KO/WT (MCF7 cells; [8]): -2.977

GVGPPrGALVrGTPVrGAITR
CARM1 140-608/WT (MCF7 CARM1 KO cells; [12]): 0.2467 | KO/WT (MCF7 CARM1 KO cells; [13]): 0.3361 | Fold change KO/WT (MCF7 cells; [14]): -0.04858

LQEVSLrQGMr
CARM1 140-608/WT (MCF7 CARM1 KO cells; [15]): 0.07113 | KO/WT (MCF7 CARM1 KO cells; [15]): -0.8557 | Fold change KO/WT (MCF7 cells; [11]): -0.8557

ITVPrLSVGSVTSrPSTPTLGTPTPQTMSVSTK
CARM1 140-608/WT (MCF7 CARM1 KO cells; [1]): -1.745 | KO/WT (MCF7 CARM1 KO cells; [1]): -2.222 | Fold change KO/WT (MCF7 cells; [2]): -2.222

B1: CARM1: coactivator-associated arginine methyltransferase 1 (protein)
chain: MAAAAAAVGPGAGGAGSAVPGGAGPCATVSVFPGARLLTIGDANGEIQRHAEQQALRLEVRAGPDSAGIALYSHEDVCVFKCSVSRETECSRVGKQSFIITLGCNSVLIQFATPNDFCSFYNILKTCRGHTLERSVFSERTEESSAVQYFQFYGYLSQQQNMMQDYVRTGTYQRAILQNHTDFKDKIVLDVGCGSGILSFFAAQAGARKIYAVEASTMAQHAEVLVKSNNLTDRIVVIPGKVEEVSLPEQVDIIISEPMGYMLFNERMLESYLHAKKYLKPSGNMFPTIGDVHLAPFTDEQLYMEQFTKANFWYQPSFHGVDLSALRGAAVDEYFRQPVVDTFDIRILMAKSVKYTVNFLEAKEGDLHRIEIPFKFHMLHSGLVHGLAFWFDVAFIGSIMTVWLSTAPTEPLTHWYQVRCLFQSPLFAKAGDTLSGTCLLIANKRQSYDISIVAQVDQTGSKSSNLLDLKNPFFRYTGTTPSPPPGSHYTSPSENMWNTGSTYNLSSGMAVAGMPTAYDLSSVIASGSSVGHNNLIPLANTGIVNHTHSRMGSIMSTGIVQGSSGAQGSGGGSTSAHYAVNSQFTMGGPAISMASPMSIPTNTMHYGS
modifications: left off: FLAG, end not stated, kept
Km (histone substrate; CARM1, natural histone substrate, ref Jacques et al., 2016): 0.15 µM
